Experiment [1] deals with T1, Protein skinhead-1 (Caenorhabditis elegans, UniProt P34707).
T1 sequence (P34707 whole entry): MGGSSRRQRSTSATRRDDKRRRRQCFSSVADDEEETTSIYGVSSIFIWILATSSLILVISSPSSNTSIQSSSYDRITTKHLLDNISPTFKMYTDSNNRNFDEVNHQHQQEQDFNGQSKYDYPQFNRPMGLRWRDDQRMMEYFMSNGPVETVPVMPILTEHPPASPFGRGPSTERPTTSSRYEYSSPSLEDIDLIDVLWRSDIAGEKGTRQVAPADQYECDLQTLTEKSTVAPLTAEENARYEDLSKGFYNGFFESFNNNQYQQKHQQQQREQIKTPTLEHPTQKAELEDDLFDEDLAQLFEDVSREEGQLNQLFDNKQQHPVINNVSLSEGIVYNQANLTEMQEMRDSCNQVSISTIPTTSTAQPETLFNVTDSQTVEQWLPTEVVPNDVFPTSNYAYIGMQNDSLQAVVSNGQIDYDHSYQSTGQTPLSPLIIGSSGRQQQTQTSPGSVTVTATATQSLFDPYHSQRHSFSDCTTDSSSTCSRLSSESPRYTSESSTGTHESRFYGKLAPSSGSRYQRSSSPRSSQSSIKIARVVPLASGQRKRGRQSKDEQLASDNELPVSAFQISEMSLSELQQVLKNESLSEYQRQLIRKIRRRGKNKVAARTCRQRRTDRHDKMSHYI
The experiment is classed as functional.

A short description of experiment [2]: P. falciparum 3D7-ScDHODH growth inhibitors, dose response, SYBR Green, dry powder samples (AID 1159570).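 Further: parasite growth measured after 72 hours of compound exposure.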 The experiment is classed as functional, cell-based.
A short description of experiment [3]: HepG2 cell cytotoxicity, dose response, cytotoxicity control, plate reader, dry powder samples (AID 1159569).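 Further: inhibitor potency with signal falling toward the positive control level.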 The experiment is classed as functional, cell-based.
Experiment [4] can be described thus: P. falciparum Dd2 growth inhibitors, dose response, SYBR Green, cherry-picked samples (AID 1159567). The experiment is classed as functional, cell-based.
A short description of experiment [5]: P. falciparum Dd2 growth inhibitors, dose response, SYBR Green, dry powder samples (AID 1159566).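 Further: potency for growth inhibition with lower SYBR green DNA signal.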 The experiment is classed as functional, cell-based.
Experiment [6] can be described thus: P. falciparum ATP4 D1247Y mutant growth inhibitors, dose response, NITD609-resistant line, SYBR Green, dry powder (AID 1159571).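 Further: parasites synchronized at ring stage by sorbitol before testing.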 The experiment is classed as functional, cell-based.
Experiment [7] deals with Streptococcus sp. 'group A'. As to the kind of experiment: growth inhibition of control SK(-) GAS strain, dose response, counter-screen for streptokinase expression inhibitor project, luminescence, kanamycin, BacTiterGlo, confirmation (AID 1900). The experiment is classed as functional, organism-based.
In experiment [8] the target is T2, Streptokinase A (Streptococcus pyogenes serotype M1, UniProt P10520).
T2 sequence (P10520 whole entry): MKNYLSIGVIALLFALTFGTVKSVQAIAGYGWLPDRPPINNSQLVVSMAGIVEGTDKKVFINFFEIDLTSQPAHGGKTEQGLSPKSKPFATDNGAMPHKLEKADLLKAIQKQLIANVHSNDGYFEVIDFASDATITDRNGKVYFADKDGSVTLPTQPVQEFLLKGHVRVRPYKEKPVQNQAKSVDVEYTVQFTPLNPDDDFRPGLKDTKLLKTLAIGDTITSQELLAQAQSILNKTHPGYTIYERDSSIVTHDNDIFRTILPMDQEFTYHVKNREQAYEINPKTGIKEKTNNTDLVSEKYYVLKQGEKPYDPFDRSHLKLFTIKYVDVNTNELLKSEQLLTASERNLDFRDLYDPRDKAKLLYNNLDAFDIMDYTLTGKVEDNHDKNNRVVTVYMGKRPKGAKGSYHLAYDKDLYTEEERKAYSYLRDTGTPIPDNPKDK
As to the kind of experiment: S. pyogenes streptokinase expression inhibitors, potency, dose response, plasminogen activation absorbance, OD405 (AID 1914).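 Further: secreted streptokinase activity via plasminogen activation per viability signal from cell pellet.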 The experiment is classed as functional, Streptococcus pyogenes M1 GAS.

Experiment [9] concerns Streptococcus. As to the kind of experiment: Group A Streptococcus viability loss, dose response, counter-screen for streptokinase expression inhibitor project, luminescence, BacTiterGlo (AID 1915).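 Further: potency for reduction of bacterial viability or growth.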 The experiment is classed as functional, organism-based.
Experiment [10] deals with Heat shock protein HSP 90-alpha (Homo sapiens, UniProt P07900). The experiment is classed as functional, organism-based.
Experiment [11] has as its system Vero. As to the kind of experiment: Vero cell cytotoxicity, cytotoxicity control for flavivirus capping enzyme inhibitors (AID 588742). The experiment is classed as functional. As to conditions: Chlorocebus sabaeus.
Experiment [12] relates to INS1. As to the kind of experiment: beta cell apoptosis inhibitors, cytokine rescue, dose response, luminescence, retest (AID 449756).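 Further: cell death triggered by IL-1 beta plus TNF-alpha plus IFN-gamma mixture; protective hits raise ATP signal compared with cytokine alone wells.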 The experiment is classed as functional, cell-based. To be noted: Rattus norvegicus.
The nature of experiment [13]: cytotoxicity in HPDE-C7 cells, cell-based, fluorescence, HTS (AID 430). The experiment is classed as functional. As to conditions: Homo sapiens.
A short description of experiment [14]: cytotoxicity in KRAS-transformed pancreatic duct cells, primary screen, cell-based, fluorescence, HTS (AID 431).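 Further: cell line used: HPDE-C7K.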 The experiment is classed as functional. As to conditions: Homo sapiens.
Experiment [15] concerns the target Paired box protein Pax-8 (Homo sapiens, UniProt Q06710). As to the kind of experiment: inhibitors of PAX8-driven TPO luciferase reporter, dose response, RMG-I cells, cherry-pick (AID 687027).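 Further: luciferase reporter driven by Pax8 target thyroperoxidase promoter measured by SteadyGlo luminescence.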 The experiment is classed as functional, cell-based.
A short description of experiment [16]: NIH:OVCAR-3 ovarian cancer cell cytotoxicity, dose response, PAX8 inhibitor project, plate reader, dry powder samples (AID 743044). The experiment is classed as functional, cell-based.
Experiment [17] addresses T3, Corticotropin-releasing factor receptor 2/Corticotropin-releasing factor-binding protein (Homo sapiens, UniProt P24387+Q13324).
T3 sequence (Q13324 whole entry): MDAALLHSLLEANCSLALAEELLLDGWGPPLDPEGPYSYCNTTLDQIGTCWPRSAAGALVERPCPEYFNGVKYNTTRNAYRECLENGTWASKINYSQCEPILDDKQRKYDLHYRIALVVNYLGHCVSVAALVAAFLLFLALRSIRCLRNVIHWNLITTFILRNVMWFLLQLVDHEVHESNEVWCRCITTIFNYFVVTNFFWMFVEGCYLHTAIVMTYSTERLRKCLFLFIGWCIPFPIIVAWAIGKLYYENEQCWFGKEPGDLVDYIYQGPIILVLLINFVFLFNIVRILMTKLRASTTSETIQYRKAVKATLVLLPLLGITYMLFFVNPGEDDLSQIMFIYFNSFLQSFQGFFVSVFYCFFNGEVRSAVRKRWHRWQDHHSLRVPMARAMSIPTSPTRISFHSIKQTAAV
T3 sequence (P24387 whole entry): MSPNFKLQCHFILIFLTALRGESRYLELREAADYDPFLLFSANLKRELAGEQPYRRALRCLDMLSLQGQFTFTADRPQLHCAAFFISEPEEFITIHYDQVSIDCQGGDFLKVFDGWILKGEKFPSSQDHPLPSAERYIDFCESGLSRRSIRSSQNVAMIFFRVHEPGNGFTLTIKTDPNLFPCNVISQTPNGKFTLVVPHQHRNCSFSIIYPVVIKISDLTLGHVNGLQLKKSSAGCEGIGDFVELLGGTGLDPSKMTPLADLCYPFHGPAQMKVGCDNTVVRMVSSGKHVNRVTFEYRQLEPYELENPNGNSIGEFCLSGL
As to the kind of experiment: Dose Response confirmation of uHTS hits for small molecule antagonists of the CRF-binding protein and CRF-R2 receptor complex. To be noted: read-out: IC50_Mean. The experiment is classed as functional.

The target of experiment [18] is T3, Corticotropin-releasing factor receptor 2/Corticotropin-releasing factor-binding protein. As to the kind of experiment: activators of CRF receptor 2 with binding protein – uHTS hits, confirmation (AID 602473). The experiment is classed as functional. As to conditions: read-out: EC50_Mean.
A short description of experiment [19]: CRF-BP/CRF-R2 complex antagonists, dose response, cell-based, uHTS hits, 384-well (AID 651639). The experiment is classed as functional, Homo sapiens. As to conditions: read-out: IC50_Mean.
The target in experiment [20] is T4, Long-chain-fatty-acid--AMP ligase FadD28 (Mycobacterium tuberculosis, UniProt P9WQ59).
T4 sequence (P9WQ59 whole entry): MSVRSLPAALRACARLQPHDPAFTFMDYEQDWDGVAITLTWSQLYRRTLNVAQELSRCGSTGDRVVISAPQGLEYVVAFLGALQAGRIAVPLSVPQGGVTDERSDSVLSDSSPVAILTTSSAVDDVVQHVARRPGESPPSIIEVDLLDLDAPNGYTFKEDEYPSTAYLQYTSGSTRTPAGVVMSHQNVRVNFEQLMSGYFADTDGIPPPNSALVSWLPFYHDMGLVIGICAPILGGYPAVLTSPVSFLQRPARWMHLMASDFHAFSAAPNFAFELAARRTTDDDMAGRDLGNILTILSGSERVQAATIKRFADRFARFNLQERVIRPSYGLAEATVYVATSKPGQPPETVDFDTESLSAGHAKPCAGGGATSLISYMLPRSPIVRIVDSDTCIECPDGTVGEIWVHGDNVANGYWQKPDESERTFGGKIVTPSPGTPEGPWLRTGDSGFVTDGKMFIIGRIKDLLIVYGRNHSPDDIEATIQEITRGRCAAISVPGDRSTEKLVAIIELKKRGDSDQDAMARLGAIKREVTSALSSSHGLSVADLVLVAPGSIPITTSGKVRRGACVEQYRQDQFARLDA
As to the kind of experiment: Fluorescence polarization aasay to screen for inhibitors that compete for the binding of FadD28 to a bisubstrate Measured in Biochemical System Using Plate Reader - 2147-01_Inhibitor_Dose_CherryPick_Activity. The experiment is classed as functional, Mycobacterium tuberculosis H37Rv.

Activity calls are given as the source filed them. Some results are limits rather than exact numbers.

Paired box protein Pax-8, sequence (Q06710 whole entry): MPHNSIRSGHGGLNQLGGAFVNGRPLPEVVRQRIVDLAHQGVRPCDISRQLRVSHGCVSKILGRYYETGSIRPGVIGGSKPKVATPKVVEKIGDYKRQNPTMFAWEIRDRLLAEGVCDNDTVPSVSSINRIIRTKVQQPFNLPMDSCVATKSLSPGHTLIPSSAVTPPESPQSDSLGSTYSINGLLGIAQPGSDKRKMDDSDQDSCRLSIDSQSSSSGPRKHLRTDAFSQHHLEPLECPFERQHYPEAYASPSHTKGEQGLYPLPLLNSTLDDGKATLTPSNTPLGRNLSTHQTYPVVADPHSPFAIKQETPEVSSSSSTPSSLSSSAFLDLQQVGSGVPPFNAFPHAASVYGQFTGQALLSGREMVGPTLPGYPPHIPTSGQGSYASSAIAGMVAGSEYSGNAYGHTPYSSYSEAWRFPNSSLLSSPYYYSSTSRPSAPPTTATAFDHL

Regarding `O=C(O)c1cnc2ccccc2n1`, the IC50 in [1] is > 100 µM (inactive).

As usually defined, the AC50 is the concentration at which the activity in the assay is half-maximal. `COc1ccc(C#Cc2ccc3c(c2)[C@H]2[C@H](CCN2Cc2ccncc2)[C@H](CO)N3)cc1`: the concentration at half-maximal activity (AC50) is 1.18 µM (active) in experiment [2]; 65.7 µM (active) in [3]; 1.19 µM (active) in experiment [4]; 0.922 µM (active) in experiment [5]; 1.11 µM (active) in [6].

What is called CC50 is the concentration that lowers cell viability or growth by half. As for `O=C(/C=C/c1cccc([N+](=O)[O-])c1)c1ccc([N+](=O)[O-])o1`, the EC50 is 2.33 µM (active) in [7], > 150 µM (not active) in experiment [8] and 8.2 µM (active) in experiment [9]. In addition, the results for the AC50 in [10] and in [12] were 0.557 µM (active) and 2.18 µM (active), respectively. Moreover, in experiment [11], the CC50 was 30.7 µM (active).

On to `Cc1cc(NCc2ccccc2)nc(-c2ccccc2O)n1`, for which the EC50 in experiment [13] is 19.2 µM (active); in [14] it was 10.3 µM (active).

For `COc1cccc(NC(=O)CN2CCc3ccccc3C2)c1`, in experiment [1], the IC50 was > 100 µM (inactive).

Consider `C[C@@H]1CCCCO[C@@H](CN(C)Cc2ccc(Cl)c(Cl)c2)[C@H](C)CN([C@@H](C)CO)C(=O)c2cc(NC(=O)Nc3ccc(C(F)(F)F)cc3)ccc2O1`, for which the figures for the AC50 in experiment [15] and in experiment [16] were 5.08 µM (active) and 29.6 µM (active), respectively.

With `O=C(c1cccc(S(=O)(=O)N2CCOCC2)c1)N(Cc1ccc(F)cc1)Cc1ccco1`, the IC50 in experiment [17] was 10.6 µM (active); in [19] it was > 20 µM (inactive). The EC50 in experiment [18] was > 53 µM (inactive).

With `CN(CC(=O)NCCc1ccccc1)S(=O)(=O)c1ccc(Br)s1`, the IC50 in experiment [1] was > 100 µM (inactive).

Turning to `Oc1ccc(Br)cc1/C=N/n1c(S)nnc1C1CCCCC1`, the AC50 in [20] is 8.32 µM (active).

In the case of `C[C@H]1CN([C@@H](C)CO)C(=O)c2c(c3ccccc3n2C)-c2ccccc2CO[C@H]1CN(C)C(=O)c1cc(Cl)cc(Cl)c1`, the AC50 was 2.36 µM (active) in experiment [2]; 27.8 µM (active) in [3]; 2.14 µM (active) in experiment [4]; 1.48 µM (active) in [5]; 1.58 µM (active) in [6].

With `C[C@@H]1CCCCO[C@@H](CN(C)S(=O)(=O)c2ccc(Cl)cc2)[C@H](C)CN([C@@H](C)CO)C(=O)c2cc(N(C)C)ccc2O1`, the AC50 in [15] was 3.28 µM (active); in experiment [16], 28.3 µM (active).

As to `Cc1ccc(-c2ccnc3nc(Sc4ncc(C(F)(F)F)cc4Cl)nn23)cc1`, the IC50 in experiment [1] was > 100 µM (inactive).

Consider `CC(C)c1ccc(NC(=O)C(=O)C2C(=O)Nc3ccccc32)cc1` (configuration not stated), for which the AC50 in [20] was 98.2 µM (active).

Regarding `COc1ccc(-c2c(C(F)(F)F)nn3c(O)cc(-c4ccccc4)nc23)cc1`, the EC50 in experiment [7] was 8.01 µM (active); in experiment [8], > 150 µM (not active); in experiment [9] it was 11.6 µM (active); in experiment [18], > 53 µM (inactive). Also, the values for the IC50 in experiment [17] and in experiment [19] were 4.6 µM (active) and 15.7 µM (active), respectively.

In the case of `COc1cccc(-c2nc(NCc3ccco3)c3ccccc3n2)c1O`, the EC50 is > 20 µM (not active) in [13] and 1.11 µM (active) in experiment [14].

As for `C[C@H](CO)N1C[C@H](C)[C@@H](CN(C)C(=O)C2CCCCC2)Oc2ncc(/C=C/c3ccccc3)cc2C1=O`, the half-maximal activity concentration (AC50) in [2] is 0.608 µM (active); in [3] it was 50.2 µM (active); in experiment [4] it was 0.658 µM (active); in [5], 0.35 µM (active); in experiment [6], 0.451 µM (active).

For the molecule `Cc1nc2cc(C(=O)NCc3ccc4c(c3)OCO4)ccc2n1-c1ccc(Br)cc1`, the IC50 in experiment [17] is < 0.368 µM (active); in [19], > 20 µM (inactive). The EC50 in experiment [18] was > 53 µM (inactive).

Source of the values: ChEMBL document CHEMBL1201862, “PubChem BioAssay data set” (2004).
